Reference: patent US7271158B2, “Treatment of rumen acidosis with α-amylase inhibitors” (Pfizer Inc., priority 2000, dated 2007)
pIC50: −log10 of the molar value.

Tests used:
[1] = tested on: bacterial glucosidase activity from bovine rumen fluid cell suspension; test: Rumen fluid glucosidase assay; format: biochemical, bovine rumen bacteria; details: rumen fluid glucosidase screen, maltose substrate
Experimental: Rumen Fluid Glucosidase Assay Protocol This assay is used to determine IC50 values for inhibitors of bacterial glucosidase activity from bovine rumen fluid cell suspension (RFCS) using a colorimetric assay. The assay measures conversion of maltose into glucose. Rumen fluid cells are incubated with maltose in the presence of inhibitors, and the amount of glucose produced is assessed using a red colourimetric endpoint. The higher the level of inhibition the lower the glucose produced and the less red colour produced. The plates are read at 450 nm. Main reaction: • Maltose+glucosidase→glucose Glucose assay • Glucose+ATP→[…] and ADP (Hexokinase and Mg^2+) • […] and NADP→6-phosphogluconate (6-PG) and NADPH • NADPH+phenazine methosulfate ([…] (iodonitrotetrazolium chloride)→[…] is deep red coloured. […] The rumen fluid was collected into pre-warmed vacuum flasks. It was then filtered through a double layer of absorbent gauze (Absorbent gauze BP, GAUZ 4 from Robert Bailey plc, Stockport) to remove hay and feed particles. The liquid was centrifuged at a relative centrifugal force of 650 for 15 minutes to remove food particles and protozoa. The supernatant was decanted into fresh tubes and centrifuged at a relative centrifugal force of 23,300 for 60 minutes. The supernatant and the loose top layer of the pellet were discarded. The pellet was resuspended in PBS at 1:8 of original volume i.e. 50 ml of PBS for the pellet from 400 ml of rumen fluid, and frozen at -20° C. When required for use the cells were thawed by standing the tube in cold water, and then diluted to […] of cells/well (45 μl/ml). Test compounds or controls were dispensed into the 96-well assay plate at 2 μl/well, followed by 50 μl per well of 10 mM maltose and 50 μl/well of rumen fluid cell suspension. The plate was incubated at 37° C. for 1 hour. Sigma glucose detection kit […] was reconstituted by addition of 17 ml of Millipore water and 4 ml of colour reagent to each vial. 100 μl of this solution was added per well and the plate returned to the 37° C. incubator for 45 minutes. The plate was then read at 450 nm. Active compounds cause a reduction in the optical density readings when compared to the no-inhibitor control wells.

[2] = tested on: rumen fluid fermentation (RUSITEC chronic acidosis model); test: RUSITEC rumen simulation, chronic acidosis model: acarbose; format: cell-based, Guernsey cow; details: for increase in butyrate production: between control and treatment periods (0 mg/vessel/d: 24%); for change in VFA production: treatment period vs preceding control period (0 mg/vessel/d: −3%)
Text: Evaluation of Agents Using the Rumen Simulation Technique ([…]) to Model Chronic Acidosis. The in vitro rumen simulation technique ([…]), first described by Czerkawski and Breckenridge (1977) was used to evaluate the effect of the bacterial α-amylase and/or α-glucosidase inhibitor acarbose on daily pH profiles and VFA production using a commercial cattle concentrate ration (GH313-see later). […] Equipment: The apparatus consisted of two […] units each containing four-fermentation vessels. […] The feed was placed in a nylon bag (14×9 cm, 50 μm), and was gently agitated using a piston mechanism (8 strokes/min). Buffer (McDougall, 1948) was continuously infused at a rate of approximately 750 ml/day by an eight channel peristaltic pump (Watson Marlow). The effluent was collected in 1 liter glass bottles containing 20 ml of oxalic acid solution (12 g/100 ml in deionised water). This was added to inhibit further microbial activity Feed: Each vessel was fed daily with a bag containing 30 g of the commercial pelleted ration GH313 (89% dry matter) and 2.5 g barley straw (90% dry matter) chopped into 1-2 cm lengths. 7 g of corn starch (Sigma Cal. No. S4126) was added to the liquid phase of all fermenter vessels at feeding on the last four days of the experiment to simulate acute acidosis. Rumen fluid donor: Rumen fluid was collected from a five year old dry Guernsey cow. […] Rumen contents were collected via a rumen fistula (Bar Diamond Inc. P.O. Box. 60. Bar Diamond Lane. Parma. Id. 83660-0060. U.S.A) Vessel inoculation: Rumen contents were taken from the fistulated donor animal at 08:00 h (before the morning feed). The material was carried to the laboratory in pre-warmed insulated flasks, and then strained through four layers of cotton gauze into another pre-warmed insulated flask. 70 g of the solid residue were weighed into each of eight nylon bags. One bag containing rumen solids, and one bag containing fresh feed was placed in the feed chamber for each vessel. The liquid contents of each vessel were 100 ml deionised water, 200 ml of buffer artificial and 500 ml of rumen fluid. After assembling and sealing the vessels, they were placed in the water baths and the piston rod attached to the drive bar. The effluent tubes were placed in the collection flasks. The head space in each vessel was flushed with CO2 for 2 min., then the piston drive motor and buffer infusion pump were started. Daily maintenance and sampling procedure: These procedures were carried out at the same time each day. Eight feed bags were prepared, and a 1 l dispenser bottle containing infusion buffer warmed to 39° C. Treatment with acarbose: Acarbose was obtained as GlucobayTM tablets (Bayer, AAH Pharmaceuticals) Each tablet contains 100 mg acarbose. Duplicate vessels were treated with 0, 1, 10 and 100 mg/d of acarbose by adding 1 tablet to each of two feed bags to give 100 mg/vessel/d. The lower doses were prepared by dissolving/suspending a tablet in 10 ml buffer (giving a 10 mg/ml solution of acarbose). One ml of this solution was then added to 9 ml of buffer, giving a 1 mg/ml solution. One ml of each solution was then added to the contents of two feed bags, to give 10 and 1 mg/vessel/d. Finally, the acarbose was dried on to the feed by leaving the bags at room temperature overnight. Analyses: Dry matter losses from the nylon bags after 48 hours incubation were measured by drying the washed bag contents in an oven for 23 h at 65° C. Effluent samples (10 ml) were taken daily and stored at -20° C. for subsequent VFA and lactate analysis .pH was automatically recorded at 17 min. intervals using equipment supplied by Philip Harris Education. A combination electrode was fitted in each vessel via a gas-tight port in the lid. […] The recorded pH values were downloaded to a PC running […] 32 software (Philip Harris Education) and then transferred to a spreadsheet for further analysis. […]

[3] = molecular target: rumen fluid supernatant amylases; test: Rumen bacterial amylase assay, protocol 2 (amylose azure); details: read-out: Average IC50, rumen fluid amylase screen

CC1OC(OC2C(CO)OC(OC3C(CO)OC(O)C(O)C3O)C(O)C2O)C(O)C(O)C1NC1C=C(CO)C(O)C(O)C1O (centres unmarked) [Acarbose, acarbose]
pIC50 [1]: 5.97
increase in butyrate production ([2]; 1 mg/vessel/d): 27%
change in VFA production ([2]; 1 mg/vessel/d): +3%
increase in butyrate production ([2]; 10 mg/vessel/d): 76%
change in VFA production ([2]; 10 mg/vessel/d): −10%
increase in butyrate production ([2]; 100 mg/vessel/d): 134%
change in VFA production ([2]; 100 mg/vessel/d): −16%
pIC50 [3]: 5.62
